Experimental data: patent US20250332173A1, “COMPOUNDS AND METHODS FOR MODULATING NUCLEIC ACID SPLICING” (REMIX THERAPEUTICS INC., priority 2021, published 2025)
Where a name gives a salt, the structure may show the parent alone. Read-outs that look alike come from different tables or passages of the source.

Key:
[1] = system: HTT mRNA; assay: RT-qPCR splicing assay, HTT canonical junction (CJ) and alternative junction (AJ) mRNA; assay type: cell-based, human; details: Homo sapiens; for AC50: increase in HTT alternative junction (AJ) mRNA, read-out: HTT AJ AC50
Summary of the method: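 Read-out is one-step RT-qPCR on cell lysates detecting the exon-exon junction of each isoform, normalized to a housekeeping gene (PPIA in A673, GAPDH or GUSB in K562).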

[2] = system: SMN2 mRNA; assay: RT-qPCR splicing assay, SMN2 canonical junction (CJ) mRNA; assay type: cell-based, human; details: Homo sapiens; Table 5 panel; canonical junction qPCR; compound concentration having 50% response in CJ decrease; read-out: SMN2 IC50 (decrease in CJ mRNA levels)
Summary of the method: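 A673 cells (DMEM/10% FBS) or K562 cells (IMDM/10% FBS) were treated 24 h at 37° C. with 11-point 3-fold dilutions (top 10 uM, ≤0.25% DMSO). Canonical-junction mRNA was quantified in lysates by RT-qPCR, normalized to GAPDH, GUSB or PPIA.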

[3] = decrease in HTT canonical junction (CJ) mRNA, RT-qPCR, read-out: HTT CJ IC50
[4] = Table 5 panel, canonical junction qPCR, compound concentration having 50% response in CJ decrease, read-out: HTT IC50 (decrease in CJ mRNA levels)

Row | Compound | IC50 [1, 3] | IC50 [1, 4] | IC50 [2] | AC50 ([1]; RT-qPCR)
1 | Cc1cn2nc(-c3cc(F)c4c(=O)n(C5CCN(C)CC5)ncc4c3)cc(C)c2n1 [Compound 539] | < 100 nM | < 100 nM | < 100 nM | < 100 nM
2 | Cc1cn2nc(-c3cc(F)c4c(=O)n(C5CCNCC5)ncc4c3)cc(C)c2n1 [Compound 540] | < 100 nM | < 100 nM | < 100 nM | < 100 nM
3 | Cc1cn2nc(-c3cc(O)c4c(=O)n(C5CCNCC5)ncc4c3)cc(C)c2n1 [Compound 541] | < 100 nM | < 100 nM | < 100 nM | < 100 nM
4 | CCN1CCC(n2ncc3cc(-c4cc(C)c5nc(C)cn5n4)cc(O)c3c2=O)CC1 [Compound 542] | < 100 nM | < 100 nM | < 100 nM | < 100 nM
5 | Cc1cn2nc(-c3cc(O)c4c(=O)n(C5CCN(C)CC5)ncc4c3)cc(C)c2n1 [Compound 543] | 100 to 1000 nM | < 100 nM | < 100 nM | < 100 nM
6 | Cc1cn2nc(-c3ccc4c(=O)n(C5CCNCC5)ccc4c3)cc(Oc3ccccc3F)c2n1 [Compound 544, 6-[8-(2-fluorophenoxy)-2-methyl-imidazo[1,2-b]pyridazin-6-yl]-2-(4-piperidyl) isoquinolin-1-one; hydrochloride] | < 100 nM | < 100 nM | < 100 nM | < 100 nM
7 | Cc1cn2nc(-c3ccc4c(=O)n(C5CCNCC5)ccc4c3)cc(Oc3cccc(F)c3)c2n1 [Compound 545, 6-[8-(3-fluorophenoxy)-2-methyl-imidazo[1,2-b]pyridazin-6-yl]-2-(4-piperidyl)isoquinolin-1-one; hydrochloride] | < 100 nM | < 100 nM | < 100 nM | < 100 nM
8 | Cc1cn2nc(-c3ccc4c(=O)n(C5CCNCC5)ccc4c3)cc(Oc3ccc(F)cc3)c2n1 [Compound 546, 6-[8-(4-fluorophenoxy)-2-methyl-imidazo[1,2-b]pyridazin-6-yl]-2-(4-piperidyl) isoquinolin-1-one; hydrochloride] | < 100 nM | < 100 nM | < 100 nM | < 100 nM
9 | COc1cccc(Oc2cc(-c3ccc4c(=O)n(C5CCNCC5)ccc4c3)nn3cc(C)nc23)c1 [Compound 547, 6-[8-(3-methoxyphenoxy)-2-methyl-imidazo[1,2-b]pyridazin-6-yl]-2-(4 piperidyl) isoquinolin-1-one] | < 100 nM | < 100 nM | < 100 nM | < 100 nM
10 | Cc1cn2nc(-c3cc(F)c4c(=O)n(C5CCNCC5)ncc4c3)cc(Oc3ccccc3)c2n1 [Compound 548, 8-fluoro-6-(2-methyl-8-phenoxy-imidazo[1,2-b]pyridazin-6-yl)-2-(4-piperidyl)phthala-zin-1-one] | < 100 nM | < 100 nM | < 100 nM | < 100 nM
11 | Cc1cn2nc(-c3ccc4c(=O)n(C5CCNCC5)ncc4c3)cc(Oc3ccccc3)c2n1 [Compound 549, 6-(2-methyl-8-phenoxy-imidazo[1,2-b]pyridazin-6-yl)-2-(4-piperidyl) phthalazin-1-one] | < 100 nM | < 100 nM | < 100 nM | < 100 nM
12 | Cc1cn2nc(-c3ccc4c(=O)n(C5CCNCC5)ccc4c3)cc(Oc3cccnc3)c2n1 [Compound 550, 6-[2-methyl-8-(3-pyridyloxy)imidazo[1,2-b]pyridazin-6-yl]-2-(4-piperidyl)isoquinolin-1-one] | < 100 nM | < 100 nM | < 100 nM | < 100 nM
13 | Cc1cn2nc(-c3ccc4c(=O)n(C5CCNCC5)ccc4c3)cc(-n3ccc(=O)cc3)c2n1 [Compound 551, 6-[2-methyl-8-(4-oxo-1-pyridyl)imidazo[1,2-b]pyridazin-6-yl]-2-(4-piperidyl)isoquinolin-1-one] | 100 to 1000 nM | 100 to 1000 nM | 100 to 1000 nM | 100 to 1000 nM
14 | Cc1cn2nc(-c3ccc4c(=O)n(C5CCNCC5)ccc4c3)cc(-n3ccccc3=O)c2n1 [Compound 552, 6-[2-methyl-8-(2-oxo-1-pyridyl)imidazo[1,2-b]pyridazin-6-yl]-2-(4-piperidyl)isoquinolin-1-one] | > 10000 nM | > 10000 nM | > 10000 nM | > 10000 nM
15 | Cc1cn2nc(-c3cc(O)c4c(=O)n(C5CCN(CCF)CC5)ncc4c3)cc(C)c2n1 [Compound 553] | < 100 nM | < 100 nM | < 100 nM | < 100 nM

Now from value to compound, other results behind:

Row | IC50 [1, 3] | IC50 [1, 4] | IC50 [2] | Compound | AC50 ([1]; RT-qPCR)
16 | 100 to 1000 nM | 100 to 1000 nM | < 100 nM | Cc1cc(-c2cc(F)c3c(=O)n(C4CCNC5(CC5)C4)ncc3c2)cc2cn(C)nc12 (centres unmarked) [Compound 554] | 100 to 1000 nM
17 | < 100 nM | < 100 nM | < 100 nM | Cc1nc2c(C)cc(-c3cc(F)c4c(=O)n(C5CCNC6(CC6)C5)ncc4c3)cc2o1 (centres unmarked) [Compound 555] | < 100 nM
18 | 100 to 1000 nM | 100 to 1000 nM | < 100 nM | Cc1cn2cc(-c3cc(F)c4c(=O)n(C5CCNC6(CC6)C5)ncc4c3)cc(Cl)c2n1 (centres unmarked) [Compound 556] | 100 to 1000 nM
19 | 100 to 1000 nM | 100 to 1000 nM | < 100 nM | Cc1cn2cc(-c3cc(O)c4c(=O)n(C5CCNC6(CC6)C5)ncc4c3)cc(Cl)c2n1 (centres unmarked) [Compound 557] | 100 to 1000 nM
20 | 1000 to 10000 nM | 1000 to 10000 nM | < 100 nM | CCc1cn(C2CCNCC2)c(=O)c2c(F)cc(-c3cc(F)c4nc(C)cn4c3)cc12 [Compound 558, 4-ethyl-8-fluoro-6-{8-fluoro-2-methylimidazo[1,2-a]pyridin-6-yl}-2-(piperidin-4-yl)isoquinolin-1-one] | 1000 to 10000 nM
21 | 100 to 1000 nM | < 100 nM | < 100 nM | C=Cc1cn(C2CCNCC2)c(=O)c2c(F)cc(-c3cc(F)c4nc(C)cn4c3)cc12 [Compound 559, 4-ethenyl-8-fluoro-6-{8-fluoro-2-methylimidazo[1,2-a]pyridin-6-yl}-2-(piperidin-4-yl)isoquinolin-1-one] | < 100 nM
22 | 1000 to 10000 nM | 100 to 1000 nM | < 100 nM | Cc1cn2cc(-c3ccc4c(=O)n(C5CCNCC5)ccc4c3)cc(C#N)c2n1 [Compound 560, 2-methyl-6-[1-oxo-2-(piperidin-4-yl)isoquinolin-6-yl]imidazo[1,2-a]pyridine-8-carbonitrile] | 100 to 1000 nM
23 | 100 to 1000 nM | 100 to 1000 nM | 100 to 1000 nM | Cc1cc(-c2cc(O)c3c(=O)n(C4CCNC5(CC5)C4)ncc3c2)cc2cn(C)nc12 (centres unmarked) [Compound 561] | 100 to 1000 nM
24 | 1000 to 10000 nM | 1000 to 10000 nM | 100 to 1000 nM | Cc1cn2nc(-c3cc4ncn(C5CCNCC5)c(=O)c4cc3F)cc(C)c2n1 [Compound 585, 7-{2,8-dimethylimidazo[1,2-b]pyridazin-6-yl}-6-fluoro-3-(piperidin-4-yl)quinazolin-4-one] | 1000 to 10000 nM
25 | 1000 to 10000 nM | 100 to 1000 nM | < 100 nM | Cc1cn2cc(-c3cc4ncn(C5CCNCC5)c(=O)c4cc3F)cc(F)c2n1 [Compound 586, 6-fluoro-7-{8-fluoro-2-methylimidazo[1,2-a]pyridin-6-yl}-3-(piperidin-4-yl)quinazolin-4-one] | 100 to 1000 nM
26 | 100 to 1000 nM | 100 to 1000 nM | < 100 nM | Cc1cn2cc(-c3cc(O)c4c(=O)n(C5CCNCC5)cnc4c3)cc(F)c2n1 [Compound 587, 7-{8-fluoro-2-methylimidazo[1,2-a]pyridin-6-yl}-5-hydroxy-3-(piperidin-4-yl)quinazolin-4-one] | 100 to 1000 nM
27 | 1000 to 10000 nM | 1000 to 10000 nM | < 100 nM | Cc1cn2cc(-c3cc(F)c4c(=O)n(C5CCNCC5)cnc4c3)cc(C#N)c2n1 [Compound 588] | 1000 to 10000 nM
28 | > 10000 nM | > 10000 nM | 100 to 1000 nM | Cc1cn2nc(-c3cc(F)c4c(=O)n(C5CCNC5)cnc4c3)cc(C)c2n1 (centres unmarked) [Compound 589, 7-{2,8-dimethylimidazo[1,2-b]pyridazin-6-yl}-5-fluoro-3-(pyrrolidin-3-yl)quinazolin-4-one] | > 10000 nM
29 | < 100 nM | < 100 nM | < 100 nM | Cc1cn2nc(-c3cc(F)c4c(=O)n([C@@H]5CCN(C)C6(CC6)C5)ncc4c3)cc(C)c2n1 [Compound 637] | < 100 nM
30 | < 100 nM | < 100 nM | < 100 nM | Cc1cn2nc(-c3cc(F)c4c(=O)n([C@H]5CCN(C)C6(CC6)C5)ncc4c3)cc(C)c2n1 [Compound 638] | < 100 nM
31 | 1000 to 10000 nM | 100 to 1000 nM | < 100 nM | Cc1cn2nc(-c3cc4ccn([C@@H]5CCNC5)c(=O)c4cc3O)cc(C)c2n1 [Compound 640, 6-(2,8-dimethylimidazo[1,2-b]pyridazin-6-yl)-7-hydroxy-2-[(3R)-pyrrolidin-3-yl]isoquinolin-1-one] | 100 to 1000 nM
32 | 1000 to 10000 nM | 100 to 1000 nM | < 100 nM | Cc1cn2nc(-c3cc4ccn([C@H]5CCNC5)c(=O)c4cc3O)cc(C)c2n1 [Compound 641, 6-(2,8-dimethylimidazo[1,2-b]pyridazin-6-yl)-7-hydroxy-2-[(3S)-pyrrolidin-3-yl]isoquinolin-1-one] | 100 to 1000 nM
